Earlier results as cited in the PKSmart pharmacokinetics tables (Seal et al. 2025).
Where a SMILES comes first, the peptide text is derived from it. [ ]: non-standard residue; d: D form. pGlu = O=C1CC[CH](C(=O)O)N1; Thz = O=C(O)[CH]1CSCN1

Test: Lombardo, Berellini, Obach 2018, Drug Metab Dispos 46:1466, doi 10.1124/dmd.118.082966
Conditions: human; for MRT / Vd / clearance / half-life: in vivo, iv; for fraction unbound: plasma

Compound	MRT	Vd	clearance	half-life	fraction unbound
CC(=O)Nc1ccc(C2=NNC(=O)CC2C)cc1 (stereo not drawn)	88 h	2.38 L/kg	0.45 mL/min/kg	70 h	0.4
CCCCC1=NC2(CCCC2)C(=O)N1Cc1ccc(-c2ccccc2-c2nnn[nH]2)cc1	6.8 h	0.94 L/kg	2.3 mL/min/kg	14 h	0.1
COC(=O)C1=C(C)NC(C)=C(C(=O)OCCCN2CCC(c3ccccc3)(c3ccccc3)CC2)[C@@H]1c1cccc([N+](=O)[O-])c1	15 h	8.4 L/kg	9.3 mL/min/kg	22 h	
CCC[C@@H]1CC(=O)N(C(CC)C(N)=O)C1 (stereo partly drawn)	12.5 h	0.56 L/kg	0.75 mL/min/kg	8.98 h	0.825
COCCN1CCN(Cc2ccc(-c3n[nH]c4c3C(=O)c3c(NC(=O)NN5CCOCC5)cccc3-4)cc2)CC1	8.5 h	5.9 L/kg	11.5 mL/min/kg	9.9 h	
O=C1CCC(C(=O)N2CSCC2C(=O)O)N1 (stereo not drawn) ([pGlu]-[Thz]-OH; configuration not given here)	4.5 h	0.31 L/kg	1.16 mL/min/kg	3.8 h	0.96
CO[C@H]1C[C@@H](O[C@@H]2C(C)C(=O)O[C@H](C)[C@H](C)[C@H](O)C(C)C(=O)[C@@]3(CO3)C[C@H](C)[C@H](O[C@H]3O[C@@H](C)C[C@@H](N(C)C)[C@H]3O)[C@H]2C)O[C@@H](C)[C@@H]1O (stereo partly drawn)	1.41 h	0.77 L/kg	9.1 mL/min/kg	1.05 h	0.4
CN1CCN2c3ncccc3Cc3ccccc3C2C1 (stereo not drawn)	8.8 h	4.2 L/kg	8 mL/min/kg		
CS(=O)(=O)c1ccc(C2=C(c3ccccc3)C(=O)OC2)cc1	10.8 h	1.3 L/kg	2 mL/min/kg	7.5 h	0.13
CC(C)(C)NC(=O)C1CC[C@H]2[C@@H]3C=CC4=CC(C(=O)O)CC[C@]4(C)[C@H]3CC[C@]12C (stereo partly drawn)	27 h	0.54 L/kg	0.33 mL/min/kg	27 h	
CN(C)CC/C=C1/c2ccccc2Sc2ccc(Cl)cc21	20.7 h	13.7 L/kg	11.5 mL/min/kg	25.8 h	
CNC(=O)C(c1ccccc1)N1CCc2cc(OC)c(OC)cc2[C@@H]1CCc1ccc(C(F)(F)F)cc1 (stereo partly drawn)	15.9 h	9.75 L/kg	10.2 mL/min/kg	34.3 h	
Oc1c(C2=CC[C@@H](c3ccc(Cl)cc3)CC2)c(O)c2ccccc2c1O	67 h	0.6 L/kg	0.15 mL/min/kg	63 h	0.001
C=C(C)[C@@H]1CCC(C)=C[C@H]1c1c(O)cc(CCCCC)cc1O	8.23 h	6.69 L/kg	13.6 mL/min/kg	23.8 h	
O=c1[nH]c2ccccc2n1CCCN1CCC(n2c(=O)[nH]c3cc(Cl)ccc32)CC1	6 h	3.4 L/kg	9.5 mL/min/kg		
O=C(O)c1ccc(-n2nc(-c3ccccc3O)nc2-c2ccccc2O)cc1	4.07 h	0.2 L/kg	0.84 mL/min/kg	4.05 h	0.004
NS(=O)(=O)c1cc2c(cc1C(F)(F)F)NCNS2(=O)=O	3.8 h	2.2 L/kg	9.7 mL/min/kg	5.2 h	
CN1CC(C(=O)N[C@]2(C)O[C@]3(O)[C@@H]4CCCN4C(=O)C(Cc4ccccc4)N3C2=O)C[C@@H]2c3cccc4[nH]cc(c34)C[C@H]21 (stereo partly drawn)	0.36 h	0.33 L/kg	15.1 mL/min/kg	0.55 h	
CC(=O)C1CC[C@H]2[C@@H]3CC[C@@H]4C[C@H](O)CC[C@]4(C)[C@H]3CC[C@]12C (stereo partly drawn)	1.5 h	2 L/kg	22 mL/min/kg	4.7 h	0.01
CCOc1cc(CC(=O)N[C@@H](CC(C)C)c2ccccc2N2CCCCC2)ccc1C(=O)O	1.88 h	0.315 L/kg	4.92 mL/min/kg	1.69 h	
CN(C)N=Nc1ccc(C(=O)O)cc1	3 h	0.25 L/kg	1.3 mL/min/kg	2.5 h	
OCCN1CCN(CC/C=C2/c3ccccc3Sc3ccc(C(F)(F)F)cc32)CC1			4.14 mL/min/kg	34.2 h	

Compound	MRT	Vd	clearance	half-life	fraction unbound
CCCCCc1cc(O)c2c(c1)OC(C)(C)[C@@H]1CCC(C(=O)O)=C[C@@H]21	18.1 h	1.28 L/kg	1.2 mL/min/kg	17.6 h	
O=C1c2c(c3c4ccc(O)cc4n([C@@H]4O[C@H](CO)[C@@H](O)[C@H](O)[C@H]4O)c3c3[nH]c4cc(O)ccc4c23)C(=O)N1NC(CO)CO	0.95 h	1.45 L/kg	25.3 mL/min/kg	4.01 h	
CCOc1ncc(S(=O)(=O)N2CCN(CC)CC2)cc1-c1nc(=O)c2nn(CCOC)c(CC)c2[nH]1	2.8 h	2.4 L/kg	14.3 mL/min/kg	4 h	
CCN1CCN(C(=O)NC(C(=O)N[C@]2(OC)C(=O)N3C(C(=O)O)=C(CSc4nnnn4C)CS[C@@H]32)[C@H](C)O)C(=O)C1=O (stereo partly drawn)	2.9 h	0.19 L/kg	1.1 mL/min/kg	1.9 h	
CCC[S@+](O)CCCN(CC)C[C@@H](O)COc1ccc(C#N)cc1	2.65 h	1.8 L/kg	11.3 mL/min/kg	2.4 h	
C[C@@H]([C@@H](O)c1ccc(O)cc1)N1CCC(O)(c2ccccc2)CC1	2.6 h	4.4 L/kg	27 mL/min/kg	3.7 h	0.63
OCCN(CCO)c1nc(N2CCCCC2)c2nc(N(CCO)CCO)nc(N3CCCCC3)c2n1	6.8 h		2 mL/min/kg	13 h	
CCC(C(N)=O)N1CCCC1=O (stereo not drawn)	11.2 h	0.6 L/kg	0.9 mL/min/kg	8.23 h	0.9
O=C(O)C(CCc1ccccc1)NC1CCCN2CCCC(C(=O)O)N2C1=O (stereo not drawn)	29.5 h	3.7 L/kg	2.1 mL/min/kg	50.6 h	
CCCCNC(=N)NC(=N)N	4.66 h	1.84 L/kg	6.58 mL/min/kg	4.62 h	
CN[C@H]1CN(c2ccc3c(=O)c(C(=O)O)cn(-c4nccs4)c3n2)C[C@@H]1OC	30.6 h	1.46 L/kg	0.79 mL/min/kg	25.5 h	
CC[C@@H]([C@H](C)O)n1ncn(-c2ccc(N3CCN(c4ccc(OC[C@H]5CO[C@@](Cn6cncn6)(c6ccc(F)cc6F)C5)cc4)CC3)cc2)c1=O	14.5 h	3.8 L/kg	4.3 mL/min/kg	10.6 h	0.013
OC[C@@H]1O[C@@H](n2cnc3c2N=CNC[C@H]3O)C[C@H]1O	6 h	0.59 L/kg	1.63 mL/min/kg	5.3 h	
C=CCN1CCC[C@H]1CNC(=O)c1cc(S(=O)(=O)NC)c(N)cc1OC	7 h	2.3 L/kg	5.47 mL/min/kg	4.8 h	
CN1C[C@@H]2c3ccccc3Oc3ccc(Cl)cc3[C@H]2C1	30.9 h	23 L/kg	12.4 mL/min/kg		
O=C1c2cccc3c2[C@H](CCC3)CN1[C@@H]1CN2CCC1CC2	40 h	6.3 L/kg	2.6 mL/min/kg	39 h	0.38
NC(=O)N1c2ccccc2CC(O)c2ccccc21 (stereo not drawn)	13.6 h	0.72 L/kg	0.88 mL/min/kg	9.8 h	0.7
CC[C@H]1OC(=O)C[C@@H](O)[C@H](C)[C@@H](O[C@@H]2O[C@H](C)C[C@H](N(C)C)[C@@H]2O)[C@@H](CC=O)CC(C)C(=O)C=C[C@]2(C)O[C@H]2[C@@H]1C (stereo partly drawn)	3.54 h	2.83 L/kg	13.3 mL/min/kg	3.34 h	
OC(CCN1CCCC1)(c1ccccc1)C1CCCCC1 (stereo not drawn)	14 h	0.74 L/kg	0.86 mL/min/kg	12 h	
CC1=CC[C@@H](C(C)(C)O)C[C@@H]1O	3.1 h	0.43 L/kg	2.7 mL/min/kg	1.9 h	
CCC(=O)O[C@]1(C(=O)SCF)[C@H](C)C[C@H]2[C@@H]3C[C@H](F)C4=CC(=O)C=C[C@]4(C)[C@@]3(F)[C@@H](O)C[C@@]21C	3.9 h	3.6 L/kg	17 mL/min/kg	6 h	0.1
CC(C)(C)NC[C@@H](O)COc1cccc2c1CCC(=O)N2			10.1 mL/min/kg	4.7 h	

Compound	MRT	Vd	clearance	half-life	fraction unbound
C[N+]1(CC2CC2)[C@@H]2C[C@@H](OC(=O)C(CO)c3ccccc3)C[C@H]1[C@@H]1O[C@@H]12 (stereo partly drawn)	0.74 h	1.12 L/kg	25 mL/min/kg	0.83 h	
COc1c(C)cc2c(c1O)[C@@H]1[C@@H]3Cc4c(OC(C)=O)c(C)c5c(c4[C@H](CNC(=O)/C=C/c4cccc(C(F)(F)F)c4)N3[C@@H](O)[C@H](C2)N1C)OCO5	17.5 h	12.6 L/kg	12 mL/min/kg	22.2 h	
NC[C@H]1O[C@H](O[C@H]2[C@H](O[C@@H]3O[C@H](CO)[C@@H](O)[C@H]3O)[C@@H](O)[C@H](N)C[C@@H]2N)[C@H](N)[C@@H](O)[C@@H]1O	2.8 h	0.25 L/kg	1.5 mL/min/kg	2.5 h	
COc1cc(CC2c3c(cc(OC)c(OC)c3OC)CC[N+]2(C)CCCOC(=O)CCC(=O)OCCC[N+]2(C)CCc3cc(OC)c(OC)c(OC)c3C2Cc2cc(OC)c(OC)c(OC)c2)cc(OC)c1OC (stereo not drawn)	1.4 h	0.22 L/kg	2.7 mL/min/kg	1.7 h	0.53
C[C@H](CCc1ccccc1)NC[C@H](O)c1ccc(O)c(C(N)=O)c1	2.8 h		29 mL/min/kg	3.3 h	
Cc1[nH]c2ccccc2c1CCNCc1ccc(/C=C/C(O)=NO)cc1			10.2 mL/min/kg	13.1 h	0.1
CCN[C@@H]1C[C@H](N)[C@@H](O[C@H]2OC(CN)=CC[C@H]2N)[C@H](O)[C@H]1O[C@H]1OC[C@](C)(O)[C@H](NC)[C@H]1O	2.2 h	0.073 L/kg	0.55 mL/min/kg	3.2 h	1
Fc1ccc([C@@H]2CCNC[C@H]2COc2ccc3c(c2)OCO3)cc1	17 h	18 L/kg	18 mL/min/kg	13 h	0.06
O=C(/C=C/c1ccc(O)c(O)c1)O[C@@H]1C[C@](OC(=O)/C=C/c2ccc(O)c(O)c2)(C(=O)O)C[C@@H](O)[C@H]1O	1.5 h	0.79 L/kg	8.7 mL/min/kg	1.37 h	
CC1(C)SC2C(NC(=O)C(NC(=O)c3cnc4cccnc4c3O)c3ccccc3)C(=O)N2C1C(=O)O (stereo not drawn)	1.4 h	0.16 L/kg	1.9 mL/min/kg	1.2 h	0.1
CC(CCc1ccccc1)NCC(O)c1ccc(O)c(C(N)=O)c1 (stereo not drawn)			23 mL/min/kg	4.4 h	
OC(c1ccccc1)(c1ccccc1)C12CC[N+](CCOCc3ccccc3)(CC1)CC2	0.57 h	1.23 L/kg	36 mL/min/kg	19 h	0.11
CC[C@@]1(O)C(=O)OCc2c1cc1n(c2=O)Cc2cc3cc(O)ccc3nc2-1	1.63 h	0.22 L/kg	2.23 mL/min/kg	1.67 h	
C=Cc1c(C)c2[nH]c1=Cc1[nH]c(c(=CCC(=O)OC)c1C)=Cc1[nH]c(c(C)c1CCC(=O)O)C=C1NC(=C3C=CC(C(=O)OC)=C(C(=O)OC)[C@@]13C)C=2	4.9 h	0.51 L/kg	1.73 mL/min/kg	6.06 h	
C[C@@H]([C@@](O)(Cn1cncn1)c1ccc(F)cc1F)S(C)(=O)=O	54 h	0.62 L/kg	0.19 mL/min/kg	49 h	
CCOCCO[C@@H]1CC[C@@H](C[C@@H](C)[C@@H]2CC(=O)C(C)=CC(C)[C@@H](O)C(OC)C(=O)C(C)C[C@H](C)/C=C/C=C/C=C(\C)[C@@H](OC)C[C@@H]3CC[C@@H](C)[C@@](O)(O3)C(=O)C(=O)N3CCCCC3C(=O)O2)C[C@H]1OC (stereo partly drawn)	60.9 h	44.5 L/kg	12.2 mL/min/kg	93.9 h	
N=C(N)N1CCC[C@@H](CNC(=O)CC(NS(=O)(=O)c2ccc3ccccc3c2)C(=O)N(CC(=O)O)C2CC2)C1 (stereo partly drawn)	0.94 h	0.36 L/kg		1.9 h	0.55
Cc1c(F)c(N2CCN[C@H](C)C2)cc2c1c(=O)c(C(=O)O)cn2C1CC1			5.9 mL/min/kg	9.2 h	0.82
O=C1c2ccc3ccccc3c2C(=O)N1CCNCCCNCCN1C(=O)c2ccc3ccccc3c2C1=O	35.2 h	12 L/kg	5.7 mL/min/kg	52.6 h	
CCn1cc(C(=O)O)c(=O)c2cc(F)c(N3CCN[C@@H](C)C3)c(F)c21	7.89 h	2.04 L/kg	3.98 mL/min/kg	8.1 h	
